Laboratory results as given in patent US7524968B2, “2-pyridinylcycloalkylbenzamide derivatives and their use as fungicides” (Bayer Cropscience S.A., priority 2004, dated 2009).

How the values were obtained:
Conditions in all cases: 330 ppm; result in words
Alternaria brassicae = assay: In vivo test on Alternaria brassicae (leaf spot of crucifers) on radish plants
Method: The active ingredient tested is prepared by potter homogenization in a concentrated suspension type formulation at 100 g/l. This suspension is then diluted with water to obtain the desired active material concentration.
Radish plants (Pernot variety) in starter cups, sown on a 50/50 peat soil-pozzolana substrate and grown at 18-20° C., are treated at the cotyledon stage by spraying with the aqueous suspension described above.
Plants, used as controls, are treated with an aqueous solution not containing the active material.
After 24 hours, the plants are contaminated by spraying them with an aqueous suspension of Alternaria brassicae spores (40,000 spores per cm^3). The spores are collected from a 12-13-day-old culture.
The contaminated radish plants are incubated for 6-7 days at about 18° C., under a humid atmosphere.
Grading is carried out 6 to 7 days after the contamination, in comparison with the control plants.

Botrytis cinerea = assay: Effectiveness on Botrytis cinerea (comparison compounds of WO 01/11965); type: in vivo
Peronospora parasitica = assay: Efficacy against Peronospora parasitica (comparison compound of WO 01/11965); type: in vivo

Row | SMILES | effectiveness on Alternaria brassicae (Alternaria brassicae) | effectiveness on Botrytis cinerea (Botrytis cinerea) | efficacy against Peronospora parasitica (Peronospora parasitica)
1 | O=C(Cc1cccs1)NCc1ncc(C(F)(F)F)cc1Cl [compound 101, N-{[3-chloro-5-(trifluoromethyl)-2-pyridinyl]methyl}-5-thienylacetamide] | poor efficacy | no efficacy | no efficacy
2 | CCNC(=O)C(Cc1ncc(C(F)(F)F)cc1Cl)NC(=O)c1ccccc1 (stereo not drawn) [compound 304, N-{1-ethylcarbamoyl-2-[3-chloro-5-(trifluoromethyl)-2-pyridinyl]-ethyl}-benzamide] | – | zero effectiveness | –
3 | CCNC(=O)C(Cc1ncc(C(F)(F)F)cc1Cl)NC(=O)c1ccc(Cl)cc1 (stereo not drawn) [compound 306, N-{1-ethylcarbamoyl-2-[3-chloro-5-(trifluoromethyl)-2-pyridinyl]ethyl}-4-chlorobenzamide] | – | zero effectiveness | –
4 | CCNC(=O)C(Cc1ncc(C(F)(F)F)cc1Cl)NC(=O)c1cccc([N+](=O)[O-])c1 (stereo not drawn) [compound 307, N-{1-ethylcarbamoyl-2-[3-chloro-5-(trifluoromethyl)-2-pyridinyl]ethyl}-3-nitrobenzamide] | poor effectiveness | zero effectiveness | –
5 | CCNC(=O)C(Cc1ncc(C(F)(F)F)cc1Cl)NC(=O)c1ccccc1Br (stereo not drawn) [compound 310, N-{1-ethylcarbamoyl-2-[3-chloro-5-(trifluoromethyl)-2-pyridinyl]ethyl}-2-bromobenzamide] | – | zero effectiveness | –
6 | CNC(=O)C(Cc1ncc(C(F)(F)F)cc1Cl)NC(=O)c1ccccc1 (stereo not drawn) [compound 314, N-{1-methylcarbamoyl-2-[3-chloro-5-(trifluoromethyl)-2-pyridinyl]ethyl}-benzamide] | – | zero effectiveness | –
7 | CNC(=O)C(Cc1ncc(C(F)(F)F)cc1Cl)NC(=O)c1ccc(OC)cc1 (stereo not drawn) [compound 315, N-{1-methylcarbamoyl-2-[3-chloro-5-(trifluoromethyl)-2-pyridinyl]ethyl}-4-methoxybenzamide] | – | zero effectiveness | –
8 | CNC(=O)C(Cc1ncc(C(F)(F)F)cc1Cl)NC(=O)c1ccc(-c2ccccc2)cc1 (stereo not drawn) [compound 316, N-{1-methylcarbamoyl-2-[3-chloro-5-(trifluoromethyl)-2-pyridinyl]-ethyl}-4-phenylbenzamide] | poor effectiveness | zero effectiveness | –
